The values that follow come from PMC4352439, “Safety Evaluation of Chinese Medicine Injections with a Cell Imaging-Based Multiparametric Assay Revealed a Critical Involvement of Mitochondrial Function in Hepatotoxicity” (Evidence-based Complementary and Alternative Medicine : eCAM, 2015).

Several values for one entry are separate records, joined by “and”; a condition that tells them apart may be missing. Equal entries are not always repeated. Where two headings read alike, the source gives them in different places.

Details of assay [1]: method as in earlier work. The settings on record: Operetta assay protocol; read-out: median concentration (IC50); cited from earlier work.
For assay [2], the system named is HepG2 cells. Put plainly: multiparametric cell-based HCA hepatotoxicity assay. On the set-up: species or system human. Particulars: for IC50: HepG2, 24-hour incubation.

In the case of `N#CC(C#N)=NNc1ccc(OC(F)(F)F)cc1` [FCCP, P-fluoromethoxyphenylhydrazone], the IC50 in assay [1] is 5.2 µM; in assay [2] (read-out: IC50 of cell number (CN)) it was 5.18 µM; in assay [2] (read-out: IC50 of mitochondrial mass (MS)), 7.02 µM; in assay [2] (read-out: IC50 of mitochondrial membrane potential (MMP)) it was 0.77 µM and 0.768 µM; in assay [2] (read-out: IC50 of nuclear area (NA)), 0.642 µM; in assay [2] (read-out: IC50 of plasma membrane permeability (PMP)), 25.7 µM. In addition, the “cell nucleuses (Hoechst 33342) in representative images” value in assay [2] (3 μM) is “shrunk”. Further, in assay [2] (3 μM), the “mitochondrial mass (MS), intensity of Mitotracker Deep Red FM in representative images” value was “increase”. The “increase of plasma membrane permeability (PMP)” value in assay [2] (30 μM) is reported as 17.5 fold.

Take `CC(=O)Nc1ccc(O)cc1` [acetaminophen]: the IC50 in assay [1] was 1300 µM; in assay [2] (listed as AAP, read-out: IC50 of cell number (CN)) it was 1840 µM; in assay [2] (listed as AAP, read-out: IC50 of mitochondrial mass (MS)) it was 9780 µM; in assay [2] (listed as AAP, read-out: IC50 of plasma membrane permeability (PMP)), 7.7 µM; in assay [2] (Homo sapiens, HepG2, 24 h, read-out: IC50 of cell number (CN)) it was 1840 µM; in assay [2] (Homo sapiens, HepG2, 24 h, read-out: IC50 of mitochondrial mass (MS)), 9780 µM. Moreover, in assay [2] (Homo sapiens, HepG2, 24 h, read-out: IC50 of plasma membrane permeability (PMP)), the IC50 worked out at 10 µM. In assay [2] (100 μM), the “increase of plasma membrane permeability (PMP)” value is reported as 61.4 fold. Moreover, the “increase of nuclear area (NA)” value in assay [2] (3 mM) is 25.7%.
